{
  "source": "patent US20080188564A1",
  "about": "“Insecticidal and Nematicidal Compositions and Methods of Use” (priority 2004, published 2008)",
  "key": {"H. megidis": {"tested_on": "H. megidis", "details": "concentrations up to 200 ug/ml; cited from earlier work"}, "Meloidogyne incognita": {"tested_on": "Meloidogyne incognita", "details": "at 100 ug/ml; cited from earlier work"}, "Caenorhabditis elegans": {"tested_on": "Caenorhabditis elegans", "details": "at 100 ug/ml; cited from earlier work"}, "[1]": {"tested_on": "voltage-gated chloride channels", "details": "Torpedo membranes vs rat brain membranes; cited from earlier work"}, "M. incognita": {"tested_on": "M. incognita", "assay": "Toxicity of DIDS on M. incognita infective juveniles", "assay_type": "in vivo, Meloidogyne incognita", "procedure": "Meloidogyne incognita cultures were maintained on potted tomatoes (c.v. Rutgers) in a greenhouse. Infective juvenile nematodes for analysis were extracted as eggs from infected tomato roots by shaking the roots in 1% bleach for 2 minutes. Eggs were captured in a 500-mesh sieve, rinsed in water and placed in Baerman funnels. When the eggs hatched, the juveniles moved downward in the funnels, and hatched infective juveniles were collected after 48 hours.\n(§1) We determined the toxicity of DIDS to infective juveniles of M. incognita and H. bacteriophora. Infective juveniles were assayed because they represent the only free-living life stage for both nematode species; adults live within their respective hosts and are not amenable to this type of test. Further, the infective juvenile of M. incognita would likely be the target of a nematicide based upon this material. The tests were conducted in either 35 mm Petri dishes or 96 well plates, holding the test material dissolved in DMSO and dispersed into tap water. Each dish was considered a replicate and contained 10-30 nematodes of either species. Each well of the 96-well plates had one nematode.\nDIDS-H.b.=DIDS-exposed H. bacteriophora; DIDS-M.i.=DIDS-exposed Meloidogyne incognita. DIDS was dissolved in DMSO, and DMSO-M.i.=DMSO-exposed Meloidogyne incognita. Average percentage mortality for each treatment group was calculated from 5 replicates containing 10 nematodes each. Bars are means±SEM.\n(§2) To further characterize the nematode-inhibiting effect of a stilbene compound (DIDS), experiments were performed as described above, using a 96 well plate and 10-30 nematodes per well, and using the plant parasite M. incognita and the free-living C. elegans. The results are depicted in Tables 1 and 2."}, "C. elegans": {"tested_on": "C. elegans", "assay": "Toxicity of DIDS on C. elegans (96 well plate)", "assay_type": "in vivo, Caenorhabditis elegans", "procedure": "as §1, §2"}},
  "data": [
    {"molecule": "CC(C)c1c(O)cc(C=Cc2ccccc2)cc1O", "note": "[DST, 3,5-dihydroxy-4-isopropylstilbene]", "values": [
      {"measurement": "sensitivity to DST", "setting": "H. megidis", "result": "completely insensitive"},
      {"measurement": "24 hr lethality", "setting": "Meloidogyne incognita", "result": 100, "unit": "%"},
      {"measurement": "24 hr lethality", "setting": "Caenorhabditis elegans", "result": 100, "unit": "%"}
    ]},
    {"molecule": "Cl[C@H]1[C@H](Cl)[C@@H](Cl)[C@@H](Cl)[C@H](Cl)[C@H]1Cl", "note": "[lindane]", "values": [
      {"measurement": "potency as inhibitor of [35S]TBPS binding, Torpedo membranes relative to rat brain", "setting": "[1]", "result": "about 4 fold"}
    ]},
    {"molecule": "O=S(=O)(O)c1cc(N=C=S)ccc1/C=C/c1ccc(N=C=S)cc1S(=O)(=O)O", "note": "[DIDS, trans-4,4′-diisothiocyanatostilbene-2,2′-disulfonic acid]", "values": [
      {"measurement": "LC50", "setting": "M. incognita; 1-day (24 hr)", "result": 160.03, "unit": "ppm"},
      {"measurement": "Slope", "setting": "M. incognita; 1-day (24 hr)", "result": "1.77 ± 0.50"},
      {"measurement": "LC50", "setting": "M. incognita; 2-day (48 hr)", "result": 97.91, "unit": "ppm"},
      {"measurement": "Slope", "setting": "M. incognita; 2-day (48 hr)", "result": "1.52 ± 0.30"},
      {"measurement": "LC50", "setting": "M. incognita; 3-day (72 hr)", "result": 37.84, "unit": "ppm"},
      {"measurement": "Slope", "setting": "M. incognita; 3-day (72 hr)", "result": "1.83 ± 0.30"},
      {"measurement": "LC50", "setting": "M. incognita; 5-day (120 hr)", "result": 17.07, "unit": "ppm"},
      {"measurement": "Slope", "setting": "M. incognita; 5-day (120 hr)", "result": "2.75 ± 0.36"},
      {"measurement": "LC50", "setting": "M. incognita; 7-day (168 hr)", "result": 11.58, "unit": "ppm"},
      {"measurement": "Slope", "setting": "M. incognita; 7-day (168 hr)", "result": "4.04 ± 0.59"},
      {"measurement": "toxicity (mortality) to nematodes", "setting": "M. incognita; 24 hr, 100 ug/ml (200 uM), in DMSO/tap water", "result": "paralytic/lethal"},
      {"measurement": "time until toxic", "setting": "M. incognita; DIDS at 10 ppm", "result": 2, "unit": "days"},
      {"measurement": "time to paralysis", "setting": "M. incognita; plant parasite nematode", "result": 2, "unit": "days"},
      {"measurement": "LC50", "setting": "C. elegans; 1-day (24 hr)", "result": 196.13, "unit": "ppm"},
      {"measurement": "Slope", "setting": "C. elegans; 1-day (24 hr)", "result": "1.43 ± 0.35"},
      {"measurement": "LC50", "setting": "C. elegans; 2-day (48 hr)", "result": 83.70, "unit": "ppm"},
      {"measurement": "Slope", "setting": "C. elegans; 2-day (48 hr)", "result": "1.45 ± 0.29"},
      {"measurement": "LC50", "setting": "C. elegans; 3-day (72 hr)", "result": 31.53, "unit": "ppm"},
      {"measurement": "Slope", "setting": "C. elegans; 3-day (72 hr)", "result": "1.87 ± 0.28"},
      {"measurement": "LC50", "setting": "C. elegans; 5-day (120 hr)", "result": 15.69, "unit": "ppm"},
      {"measurement": "Slope", "setting": "C. elegans; 5-day (120 hr)", "result": "2.86 ± 0.36"},
      {"measurement": "LC50", "setting": "C. elegans; 7-day (168 hr)", "result": 10.67, "unit": "ppm"},
      {"measurement": "Slope", "setting": "C. elegans; 7-day (168 hr)", "result": "4.57 ± 0.71"},
      {"measurement": "time until toxic", "setting": "C. elegans; DIDS at 10 ppm", "result": 2, "unit": "days"},
      {"measurement": "time to paralysis", "setting": "C. elegans; free-living nematode", "result": 2, "unit": "days"}
    ]}
  ]
}
